The source made the active and inactive calls.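 Rule for the calls: active = in confirmatory dose-response testing, peak deubiquitinase inhibition of 30% or more; inactive = the rest.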
Molecular target: Ubiquitin carboxyl-terminal hydrolase 28 (Homo sapiens) (UniProt Q96RU2)
Experiment: Concentration-response biochemical assay confirming initial hits as inhibitors of ubiquitin-specific protease 28 (AID 1645866)
Details: purified USP28, ubiquitin-rhodamine fluorescence, 30 min

Chain of Ubiquitin carboxyl-terminal hydrolase 28 (Homo sapiens) (Q96RU2 whole entry, looked up): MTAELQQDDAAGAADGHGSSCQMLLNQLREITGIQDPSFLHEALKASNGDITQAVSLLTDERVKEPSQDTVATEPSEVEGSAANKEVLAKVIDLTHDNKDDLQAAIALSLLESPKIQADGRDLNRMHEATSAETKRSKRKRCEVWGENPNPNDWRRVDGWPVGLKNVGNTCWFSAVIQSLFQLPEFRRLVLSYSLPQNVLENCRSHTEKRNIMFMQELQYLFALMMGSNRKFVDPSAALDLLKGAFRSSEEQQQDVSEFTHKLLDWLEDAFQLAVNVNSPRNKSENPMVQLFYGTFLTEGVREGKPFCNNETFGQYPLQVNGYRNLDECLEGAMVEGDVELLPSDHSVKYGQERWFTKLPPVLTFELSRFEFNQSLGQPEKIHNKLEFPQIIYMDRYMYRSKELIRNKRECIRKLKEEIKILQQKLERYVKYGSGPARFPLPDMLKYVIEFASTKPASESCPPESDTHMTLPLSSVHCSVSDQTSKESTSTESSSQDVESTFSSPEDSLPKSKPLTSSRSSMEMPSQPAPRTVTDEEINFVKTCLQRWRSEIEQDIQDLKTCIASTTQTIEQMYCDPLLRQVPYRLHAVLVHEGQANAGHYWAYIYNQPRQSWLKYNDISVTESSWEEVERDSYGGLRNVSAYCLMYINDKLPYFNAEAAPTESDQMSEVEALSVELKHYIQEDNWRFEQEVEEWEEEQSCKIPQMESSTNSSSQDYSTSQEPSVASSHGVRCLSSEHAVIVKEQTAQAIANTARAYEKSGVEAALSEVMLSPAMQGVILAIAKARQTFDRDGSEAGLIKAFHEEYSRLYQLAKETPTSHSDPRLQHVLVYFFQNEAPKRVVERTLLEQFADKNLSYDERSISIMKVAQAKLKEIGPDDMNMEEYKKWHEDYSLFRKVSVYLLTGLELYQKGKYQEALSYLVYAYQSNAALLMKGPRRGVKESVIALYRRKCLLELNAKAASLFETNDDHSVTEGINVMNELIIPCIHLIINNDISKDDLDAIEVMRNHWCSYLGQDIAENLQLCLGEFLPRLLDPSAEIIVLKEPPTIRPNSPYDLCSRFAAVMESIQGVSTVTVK

IC50 | Compound
> 50 µM (inactive) | Cc1c(-c2ccccc2)oc2c(C(=O)OCC(=O)Nc3ccccc3F)cccc2c1=O
> 50 µM (inactive) | O=C(c1cc2ccccc2o1)N1CC=C(c2ccccc2)CC1
17.2 µM | O=C(CSc1cn(Cc2ccccc2)c2ccccc12)Nc1ccc2c(c1)OCCO2
9.69 µM | Clc1cncc(Oc2nc(-c3cccnc3)nc3ccccc23)c1
> 50 µM (inactive) | Cc1ccc(-c2nc(-c3cccs3)cc(C(F)(F)F)c2C#N)cc1
12.5 µM | COc1ccc(C(=O)Nc2nc3n(n2)C(c2ccccc2)CC(=O)N3)cc1 (stereo not drawn)
20.8 µM | Cc1nn(Cc2ccccc2)c2sc(C(=O)Nc3nc4ccccc4[nH]3)cc12
> 50 µM (inactive) | Nc1ccccc1SC(CC(=O)c1ccc(Cl)cc1)c1ccsc1 (stereo not drawn)
26.5 µM | CCn1cc(-c2nc(-c3ccccn3)no2)c(=O)c2cc(F)ccc21
22.6 µM | COc1cccc(NC(=O)C2Cc3ccccc3N2C(=O)c2ccccc2)c1 (stereo not drawn)
29.3 µM | O=C(NCc1ccccc1)Nc1cccc2ccccc12
10.5 µM | CCn1cc2c(n1)c(=O)n(Cc1ccccc1)c(=O)n2CC(=O)Nc1ccc(OC)cc1
36.9 µM | O=C(Cc1cccc2ccccc12)Nc1nc2ccc(F)cc2s1
28.8 µM | O=C(NCC(c1cccnc1)N1CCc2ccccc2C1)C(=O)Nc1ccc2c(c1)OCO2 (stereo not drawn)
19.9 µM | Cc1ccc(NC(=O)c2nnn(-c3ccccc3)n2)cc1F
2.07 µM | COc1ccccc1-c1nc2c3c(C)c(C)n(-c4ccc(Br)cn4)c3ncn2n1
42.5 µM | Nc1c(C(=O)NCCc2ccccc2)nnn1-c1ccc(F)cc1
> 50 µM (inactive) | Cc1sc(NC(=O)CNc2ccccc2)nc1-c1ccc2c(c1)CCN2C(=O)C(C)C

IC50 | Compound
> 50 µM (inactive) | O=c1[nH]c(-c2ccccn2)nc2c1CCN(Cc1cnn(-c3ccccc3)c1)C2
> 50 µM (inactive) | COc1ccccc1CNC(=O)c1ccccc1OCc1ccccc1Cl
2.97 µM | Fc1ccc(-c2noc(-c3nnc(NCc4cccnc4)c4ccccc34)n2)cc1
6.27 µM | c1ccc(-c2ccc(NCc3ccc4c(c3)OCO4)nn2)cc1
39 µM | Cc1ccc2nc(CNC(=O)c3ccccc3-c3nc(-c4ccc(F)cc4)no3)[nH]c2c1
2.12 µM | O=c1c2ccccc2oc2nc(-c3cccs3)n(-c3ccccc3)c(=O)c12
> 50 µM (inactive) | CC(=O)Nc1ccc(Cc2nc(-c3ccc4c(c3)nc(C)c(=O)n4C3CCCC3)no2)cc1
5.55 µM | Cc1ccc(Cn2c(=O)c3ccccc3n3c(CCC(=O)N4CCN(c5ccccn5)CC4)nnc23)cc1
36.1 µM | Cc1ccn(-c2ccc(NC(=O)c3ccccc3Sc3ccccc3C#N)cc2)n1
24.9 µM | CC1=C(C)C(N(c2ccccc2)c2ccccc2)N(CCC(C)C)C1=O (stereo not drawn)
27 µM | Cc1cccc(Cl)c1NC(=O)Nc1ccc(NC(=O)c2ccccc2O)cc1
3.91 µM | Cc1cccc(-n2ccnc(SCC(=O)Nc3ccc(Cl)cc3F)c2=O)c1
> 50 µM (inactive) | CN1c2ccccc2CN(CC(N)=O)CC1Cc1ccccc1 (stereo not drawn)
5.88 µM | Cc1ccccc1NC(=O)c1nc(-c2cn(Cc3ccc(F)cc3)nn2)no1
28 µM | COc1cc(OC)cc(-n2c(=O)c3sccc3n(CC(=O)c3ccc(F)cc3)c2=O)c1
12.7 µM | CCCC(=O)Nc1ccc(SCc2nnc(-c3ccccc3)o2)cc1
18.8 µM | O=C(Nc1cccc2ccccc12)C1CCCN(S(=O)(=O)Cc2ccccc2)C1 (stereo not drawn)

The remaining lines, values behind:

Compound | IC50
CC1CC[C@]2(NC1)O[C@H]1C[C@H]3[C@@H]4CC[C@H]5C[C@@H](O[C@@H]6O[C@H](CO)[C@H](O[C@@H]7O[C@H](CO)[C@@H](O)[C@H](O[C@@H]8OC[C@@H](O)[C@H](O)[C@H]8O)[C@H]7O[C@@H]7O[C@H](CO)[C@@H](O)[C@H](O)[C@H]7O)[C@H](O)[C@H]6O)CC[C@]5(C)[C@H]4CC[C@]3(C)[C@H]1[C@@H]2C (stereo partly drawn) | 30.5 µM
COc1ccc(CNc2nn3c(-c4cncc(OC)c4)cnc3s2)cc1 | 2.61 µM
CCc1ccc(NC(=O)COc2cccc(-n3cnnn3)c2)cc1 | 25 µM
O=C1N(Cc2ccc(F)cc2)CCN1c1ccc(C(F)(F)F)cn1 | 4.67 µM
CCOC(=O)c1cc2c(ccn2C)n1CC(=O)N1CCC(C)CC1 | > 50 µM (inactive)
Cc1ccc(NC(=O)c2sc3ncn(CC(=O)N4CCN(c5ccccn5)CC4)c(=O)c3c2C)c(Br)c1 | 16.1 µM
CNS(=O)(=O)c1ccc(CNC(=O)c2cc(-c3ccc(C)cc3)no2)cc1 | 21 µM
CCN(CC)c1cc(C)c2cc(NC(=O)c3ccncc3)ccc2n1 | 5.88 µM
Cc1cc(NC(=O)c2[nH]nc3c2CCc2ccccc2-3)no1 | 6.37 µM
Cc1oc(-c2ccc(C(=O)NCC3COCCO3)cc2)nc1CN1CCc2ccccc21 (stereo not drawn) | 38.8 µM
COc1ccc(NC(=O)COc2ccc3ccc(=O)oc3c2)cc1 | 31.1 µM
Cc1nc(C(=O)Nc2cccc(Cl)c2Cl)nn1-c1cc(Cl)cc(Cl)c1 | 0.163 µM
COC(=O)CC1CC23OC2(C(=O)c2c(O)cccc2C3=O)C(C)O1 (stereo not drawn) | 3.55 µM
COc1ccc(C2CC(c3ccccc3)N(C(=O)C3CC3)c3ncnn32)cc1 (stereo not drawn) | > 50 µM (inactive)
CCCCCC(O)c1c(O)cc2c(c1O)C(=O)c1c(O)cc(O)cc1C2=O (stereo not drawn) | > 50 µM (inactive)
COc1ccc(-c2nc(Cn3nnc(C(=O)Nc4ccc(C)cc4C)c3N)c(C)o2)cc1 | 42.9 µM
CC(=O)c1cccc(NC(=O)c2ccc(N3CCCCC3)nn2)c1 | 32.4 µM
COc1cccc(C(=O)Nc2ccc(-n3cnnn3)cc2)c1 | 21.7 µM
COc1ccc(C(=O)CCN2CCOCC2)cc1[N+](=O)[O-] | > 50 µM (inactive)
COc1ccc2cc3c(nc2c1)OC(=O)N(CCc1cccc(F)c1)C3 | 0.233 µM
COc1ccc(Nc2nc(C(=O)NCc3ccc4c(c3)OCO4)cc3occc23)cc1 | 4.91 µM
Cc1csc2ncc(C(=O)N3CCN(c4ccccc4F)CC3)c(=O)n12 | > 50 µM (inactive)
COc1cccc(CNC(=O)c2ccc3c(c2)NC(=O)C2CCCN32)c1OC (stereo not drawn) | > 50 µM (inactive)

Compound | IC50
CN(C)S(=O)(=O)N1CCCC2(C1)Nc1cccnc1NC2=NC1CCCC1 (stereo not drawn) | > 50 µM (inactive)
CC(C)c1ccc(NC(=O)COC(=O)c2ccc3[nH]c4c(c3c2)CCCC4)cc1 | 31.4 µM
Cn1nc(-c2nc(-c3ccccc3)no2)c2c1CCN(C(=O)C1CCCC1)C2 | 24.1 µM
Cc1cccc(NC(=O)CSc2ncnc3c2sc2nc(CC(C)C)c4c(c23)CCC4)c1 | 6.42 µM
CC1CS(=O)(=O)N(c2ccc(C(=O)Nc3ccc4c(c3)OCCO4)cc2)C1=O (stereo not drawn) | 7.25 µM
O=C(Nc1ccc2c(c1)OCCO2)c1cc(CN2CCCC2)on1 | 9.81 µM
Cn1cc(-c2cnc(-c3cccc(F)c3)nc2)cc1C(=O)NCc1cccnc1 | 36.8 µM
O=C(Nc1nnc2n1CCCS2)c1cc2ccccc2o1 | 4.43 µM
CC(C)(C)C(=O)C1C2C(=O)N(c3ccc4c(c3)OCO4)C(=O)C2C2c3ccccc3C=CN12 (stereo not drawn) | > 50 µM (inactive)
Cc1noc(-c2cccn(Cc3cccc(C(F)(F)F)c3)c2=O)n1 | 8.11 µM
O=c1c(NCCCN2CCCC2)nc2ccncc2n1Cc1ccccc1 | > 50 µM (inactive)
Cc1ccc(C(=O)Nc2ccc(S(=O)(=O)N3CCCC3)cc2)cc1Br | 3.32 µM
CCC1(C)Cc2c(sc3nc(SCC(=O)Nc4ccc(C(C)=O)cc4)nc(N)c23)CO1 (stereo not drawn) | 17.9 µM
Cc1cccc(NC(=O)CN2C(=O)COc3cc(S(=O)(=O)N4CCCC4)ccc32)c1C | 21 µM
CN(C)c1cccc(C(=O)Nc2cc(-c3cccnc3)no2)c1 | 13.5 µM
O=C(NCc1ccc2c(c1)OCO2)c1cc(-c2cc(Cl)ccc2O)n[nH]1 | 12 µM
O=C(NC1CCCC1)c1cccc(-c2ccc(N3CCCC3)nc2)c1 | 8.14 µM
CCc1noc(-c2ccc(OCC(=O)Nc3ccc(C)cc3C)cc2)n1 | 33.7 µM
Cc1ccc2[nH]cc(S(=O)(=O)c3ccc(C)c(F)c3)c(=O)c2c1 | 19.9 µM
Cc1ccc2[nH]c3c(=O)n(CC4CCCO4)cnc3c2c1 (stereo not drawn) | 18 µM
COc1ccc(-c2nc(C)c(C(=O)NCc3ccc(S(N)(=O)=O)cc3)s2)cc1 | > 50 µM (inactive)
CCc1noc(Cn2cnc3c4ccccc4n(CC(=O)NC4CCCCC4)c3c2=O)n1 | 40 µM
Cc1ccc(NC(=O)c2ccn(COc3ccc(F)cc3)n2)nc1 | 33.3 µM

Compound | IC50
CN(C)Cc1ccc(C(=O)Nc2ccc(-c3nccs3)cc2)cc1 | 1.1 µM
Cc1oc(C2CC2)cc1C(=O)N1CCC2(CC1)CC1(CO2)Nc2ccccc2-n2cccc21 (stereo not drawn) | > 50 µM (inactive)
COC(=O)c1ccc(C(=O)Nc2cc3ccccc3cc2NC(=O)c2ccc(C(=O)OC)cc2)cc1 | 2.78 µM
CS(=O)(=O)c1ccc(NC(=O)C2CN(c3nc4c(F)cccc4s3)C2)cc1 | 21.3 µM
COc1ccc(-c2cc3nc([C@H](C)NC(=O)Cc4ccccc4C)nn3cn2)cc1 | 2.61 µM
Cc1nc(CN2CCn3c(Cn4cccn4)cnc3C2C)cs1 (stereo not drawn) | > 50 µM (inactive)
Cc1cc(O)c(Oc2cc(C)cc(O)c2O)c(O)c1 | 15.1 µM
CC(C)CCN1C(=O)C2C(C(=O)Nc3ccc(Oc4ccccc4)cc3)C3C=CC2(O3)C1C(=O)NC1CCCCC1 (stereo not drawn) | 37.5 µM
COc1ccc(-c2cc3nc(C)cc(Nc4ccc(F)cc4)n3n2)cc1OC | > 50 µM (inactive)
COc1ccc(NC(=O)c2nnc(C(=O)NCCN3CCCCCC3)s2)cc1 | 12.2 µM
COc1ccc(COC(=O)C2=C(C)NC(=O)CC2c2cccc([N+](=O)[O-])c2)cc1 (stereo not drawn) | 3.06 µM
COc1cc(NC(=O)c2cc(-c3ccncc3)n(-c3ccc(F)cc3)n2)cc(OC)c1 | 12 µM
COc1cc(OC)cc(C(=O)Nc2cnc(-c3ccccc3)nc2)c1 | > 50 µM (inactive)
COc1ccc(-c2ocnc2C(=O)NCc2ccc(F)cc2)cc1 | 8.2 µM
CSc1nc(SCC(N)=O)c2c3c(sc2n1)COC(C)(C)C3 | 27.3 µM
Cc1ccc(NC(=O)/C=C/c2cccc(C(F)(F)F)c2)c(O)c1 | 16.2 µM
Cc1ccc(S(=O)(=O)N(C)C)cc1NC(=O)Cc1ccc(Cl)c(Cl)c1 | 0.274 µM
Cc1cc(-c2ccnc3c(C#N)cnn23)c(C)s1 | 28.3 µM
COc1cc(C2SCC(=O)Nc3c2c(-c2ccccc2)nn3-c2ccccc2)cc(OC)c1OC (stereo not drawn) | 3.37 µM
Cc1cc(C(=O)Nc2ccc3c(c2)OCCO3)no1 | 9.47 µM
Cc1ccc(C)c(-c2cc3c(=O)n(Cc4noc(CN5CCCCC5)n4)ccn3n2)c1 | 4.49 µM
CC1=CC(=O)C(C2=C(O)C(=O)C(C)=CC2=O)=C(O)C1=O | 20.3 µM
